These results are taken from the SangsterLogP compilation.

Data set [1] in a line: from Medić-Šarić, M; Mornar, A.; Badovinac-Črnjević, T; Jasprica, I. (2004). Experimental and calculation procedures for molecular lipophilicity: A comparative study for …. The conditions noted are these: pH 7.4.
Data set [2] in a line: method code SF-AS, from Zhang, L.; Fu, G.; Wan, Y. (2014). Determination of verbascoside and its oil-water partition coefficient by ultraviolet spectrophotometry. Shipin Anquan ZhiliangJjiance Xuebao, 5(2)528-532.
Assay in data set [3]: not given
This is another data set of the same source.

The nature of data set [4]: method code SF-HPLC, from Xiong, Ð. (2009). Apparent partiton coefficient of hawthorn leaf flavonoids in phospholipids complex. Chinese Traditional Patent Medicine, 31(7)1075-1078.
A short description of data set [5]: method code SF-AS, from DOI: 10.1111/j.1476-5381.1987.tb08980.x, PMID: 3036289. The conditions noted are these: pH 7.4.
Assay in data set [6]: not given
This is another data set of the same source.

Assay in data set [7]: not given
This is another data set of the same source.

Data set [8] in a line: method code SF, from DOI: 10.1016/0006-2952(92)90292-q, PMID: 1371213. The conditions noted are these: pH 7.4.
Data set [9] in a line: method code SF-RC, from DOI: 10.1016/s0969-8051(00)00170-0, PMID: 11323238. Particulars: pH 7.4.
A short description of data set [10]: method code SF-HPLC, from DOI: 10.1016/j.ejps.2006.07.007, PMID: 16997537. The conditions noted are these: pH 7.4.
Data set [11] in a line: method code SF, from DOI: 10.1021/jm020886c, PMID: 12852752. The conditions noted are these: pH 7.4.
The nature of data set [12]: method code SF-RC, from DOI: 10.1021/acs.jmedchem.6b01291.s001, PMID: 27696839. Particulars: pH 7.4.
The nature of data set [13]: method code SF-HPLC, from DOI: 10.1002/jlac.1995199512306.
The nature of data set [14]: method code SF-HPLC, from Yao, Y.; Liao, Q.; Zeng, L.; Zhang, L.; Ma, Y.; Zeng, Y. (2009). Determination of the apparent oil-water partition coeffcient of neoandrographolide and effect of pH. Pharmacy Today, 19(10)8-10. Particulars: pH 6.0.
A short description of data set [15]: method code SF-HPLC, from DOI: 10.1211/146080899128734820. The conditions noted are these: pH 2.0.
Data set [16] is described as follows: method code SF, from DOI: 10.1021/jm00088a010, PMID: 1350310.
Data set [17] can be described thus: method code SF, from DOI: 10.1021/jm000996o, PMID: 11087582. The conditions noted are these: pH 7.2.
Data set [18] can be described thus: method code SF-HPLC, from DOI: 10.1002/jps.2600840603, PMID: 7562403. The conditions noted are these: pH 7.4.
A short description of data set [19]: method code SF, from DOI: 10.1021/jm950645n, PMID: 8576912.
Data set [20] can be described thus: method code SF-EIA, from DOI: 10.1016/s0022-2275(20)42614-8, PMID: 2280184. Particulars: pH 1.0.
The nature of data set [21]: method code SF, from DOI: 10.1016/s0960-894x(01)80459-5.
Assay in data set [22]: not given
This is another data set of the same source.

Assay in data set [23]: not given
This is another data set of the same source.

Data set [24] in a line: method code SF-AS, from DOI: 10.1021/ja00198a050.
Assay in data set [25]: not given
This is another data set of the same source.

The nature of data set [26]: method code SF-RC, from DOI: 10.1021/jm00392a008, PMID: 3625705.
Data set [27] can be described thus: method code SF-RC, from DOI: 10.1016/j.nucmedbio.2016.01.003, PMID: 27067043. The conditions noted are these: pH 7.4.
Assay in data set [28]: not given
This is another data set of the same source.

Data set [29] can be described thus: method code SF-HPLC, from DOI: 10.1021/js950484a, PMID: 9002474. Particulars: pH 7.4.
Data set [30] is described as follows: method code SF, from DOI: 10.1021/jm00169a014, PMID: 2362268. Particulars: pH 7.4.
Assay in data set [31]: not given
This is another data set of the same source.

Assay in data set [32]: not given
The source holds these as a separate data set.

The nature of data set [33]: method code SF-HPLC, from DOI: 10.1016/j.ejps.2010.08.004, PMID: 20728535.

With `CC(=O)OC1C(c2ccc(=O)oc2)[C@@]2(C)CC[C@H]3[C@@H](CC[C@@H]4CC(O)CC[C@@]43C)[C@]23OC13` (some centres undefined), the lipophilicity (logP) (commonly a log measure of how a compound divides between an organic and an aqueous phase) is 3.27.
For `COc1ccccc1C(c1cc2ccccc2oc1=O)c1cc2ccccc2oc1=O`, the logD (in general, lipophilicity at a set pH, counting ionised and neutral species) in [1] was 2.5.
In the case of `C[C@@H]1O[C@@H](OC2[C@@H](O)C(OCCc3ccc(O)c(O)c3)OC(CO)[C@H]2OC(=O)/C=C/c2ccc(O)c(O)c2)[C@H](O)C(O)C1O` (some centres undefined), in data set [2], the logP is -0.57.
In [3], `COC(=O)CC(O)CC(O)C=Cn1c(C(C)C)nc(-c2cccc(Br)c2)c1-c1ccc(F)cc1` (centres undefined) yielded a log partition coefficient (logP) of 2.8.
Consider `C[C@@H]1O[C@@H](O[C@@H]2[C@@H](O)[C@H](O)[C@@H](CO)O[C@H]2c2c(O)cc(O)c3c(=O)cc(-c4ccc(O)cc4)oc23)[C@H](O)[C@H](O)[C@H]1O`, for which, in data set [4], the log partition coefficient (logP) was -0.92.
`C[C@@H]1O[C@@H](O[C@H]2C[C@@H](O)[C@]3(CO)[C@H]4[C@H](O)C[C@]5(C)[C@@H]([C@@H]6COC(=O)C6)CC[C@]5(O)[C@@H]4CC[C@]3(O)C2)[C@H](O)[C@H](O)[C@H]1O` yielded a logD in data set [5] of -0.7.
In turn, `CC(C)(C)OC(=O)NC(Cc1ccccc1)C(=O)N1CCCC1C(=O)NCc1ccc(N)cc1` (centres undefined) yielded a log partition coefficient (logP) in data set [6] of 2.34.
Consider `CC(C)C[C@H](NC(=O)Cc1ccc(C(=O)O)c(OCCF)c1)c1ccccc1N1CCCCC1`, for which, in data set [7], the lipophilicity (logP) worked out at 2.39.
Regarding `CN(CC(=O)N[C@@H]1CC[C@@]2(O)[C@H]3Cc4ccc(O)c5c4[C@@]2(CCN3CC2CC2)[C@H]1O5)c1ccc([N+](=O)[O-])c2nonc12`, the log distribution coefficient (logD) in [8] was determined as 1.
Take `COc1cc2ncnc(N3CCC(n4c(=O)c5cc(C)ccc5n(C)c4=O)CC3)c2cc1OC`: the log distribution coefficient (logD) in data set [9] was 3.14.
In turn, `CCN(CC)C(=O)COC(=O)C1OC(Oc2cc3oc(-c4ccc(O)cc4)cc(=O)c3c(O)c2O)C(O)C(O)C1O` (centres undefined) had a logD in [10] of 1.48.
Regarding `Cc1ccc(CCOCCCS(=O)(=O)CCNCCc2ccc(O)c3[nH]c(=O)sc23)cc1-c1nccs1`, in [11], the logD was found to be 1.44.
In turn, `O=C(NO)C1CC(O)CN1C(=O)c1ccc(C#Cc2ccc(OCCCCCF)cc2)cc1` (centres undefined) yielded a logD in data set [12] of 2.5.
In data set [13], `Cc1cn(C2CC(N=[N+]=[N-])C(COP(=O)(OCc3ccc(Cl)cc3)OCC3OC(n4cc(C)c(=O)[nH]c4=O)CC3N=[N+]=[N-])O2)c(=O)[nH]c1=O` (centres undefined) came in with a logP of 2.06.
In the case of `C=C1CC[C@@H]2[C@](C)(CO[C@@H]3O[C@H](CO)[C@@H](O)[C@H](O)[C@H]3O)CCC[C@@]2(C)[C@@H]1CCC1=CCOC1=O`, the pH-dependent lipophilicity (logD) in data set [14] was 0.44.
`CC[C@H](C)C(=O)O[C@H]1C[C@@H](C)C=C2C=C[C@H](C)[C@H](CC[C@@H]3C[C@@H](O)CC(=O)O3)[C@H]21`: the logD in [15] worked out at 4.04.
Regarding `O=C(COc1ccc(OCCNCC(O)COc2ccccc2)cc1)N1CCc2ccccc2C1` (centres undefined), the logP in data set [16] was 3.6.
Turning to `Cc1cn(C2CC(N=[N+]=[N-])C(COP(=O)(OCCSC(=O)C(C)(C)C)OCCSC(=O)C(C)(C)C)O2)c(=O)[nH]c1=O` (centres undefined), the log distribution coefficient (logD) in data set [17] is 3.73.
As for `CCCC1O[C@@H]2C[C@H]3[C@@H]4CCC5=CC(=O)C=C[C@]5(C)[C@H]4[C@@H](O)C[C@]3(C)[C@]2(C(=O)CO)O1` (some centres undefined), the pH-dependent lipophilicity (logD) in [18] worked out at 3.55.
In the case of `C#CCN(Cc1ccc2[nH]c(C)nc(=O)c2c1)c1ccc(C(=O)NCc2cccc([N+](=O)[O-])c2)cc1`, the logP in data set [19] turned out to be 3.7.
With `C[C@H](CCC(=O)NCC(=O)O)[C@H]1CC[C@H]2[C@@H]3C[C@H](O)[C@@H]4C[C@H](O)CC[C@]4(C)[C@H]3CC[C@]12C`, the logD in data set [20] is 2.15.
The compound `CCCCCCOP(=O)(OCC1CC(O)C(n2cnc3c(N)ncnc32)O1)OCC1OC(n2cc(C)c(=O)[nH]c2=O)CC1N=[N+]=[N-]` (centres undefined) came in with a lipophilicity (logP) in data set [21] of 1.11.
`O=C(CCCCCCCCCCn1ccnc1[N+](=O)[O-])Nc1ccc(-c2nc3ccccc3s2)cc1`: the lipophilicity (logP) in [22] stood at 1.99.
As to `CCCN(CCCCN1C(=O)CC2(CCCC2)C(O)C1=O)C1COc2cccc(OC)c2C1` (centres undefined), the logP in data set [23] was 4.1.
For `CC(C)(C)c1ccc2c(c1)OCCOCCOCCOCCOCCOCCOCCOCCOCCO2`, the logP in [24] worked out at 1.69.
In data set [25], `CCCCCCCCc1ccc(OCC(=O)Cn2cc(C(C)=O)c3cc(C(=O)O)ccc32)cc1` came in with a logP of 5.8.
`CC/C=C\C/C=C\C/C=C\CCCCCCCC(=O)OCC(COC(=O)CCCN)OC(=O)CCCN` (centres undefined) had a lipophilicity (logP) in data set [26] of 0.33.
As to `C=CC(=O)NCCCC[C@H](NC(=O)Cc1ccccc1)C(=O)N1CCN(c2cccc(C)n2)CC1`, the pH-dependent lipophilicity (logD) in data set [27] is 2.09.
As for `CC1C=C(C(=O)Nc2ccc(-c3ccccc3S(N)(=O)=O)cc2)N(c2ccc3ccnc(N)c3c2)N1` (centres undefined), the logP in data set [28] came to 2.6.
For the compound `CCCCCCCC/C=C\CCCCCCCC(=O)NCc1ccc(O)c(OC)c1`, the log distribution coefficient (logD) in data set [29] amounted to 8.02.
`C=C1[C@@H](C)[C@H]2[C@H](Cc3ccccc3)NC(=O)[C@]23OC(=O)/C=C\[C@H](O)CCC[C@@H](C)C/C=C/[C@H]3[C@@H]1O` yielded a logD in data set [30] of 3.37.
With `CCC1(C)C2CN(Cc3ccccc3)CC1CN(CC1CCCCC1)C2` (centres undefined), the logP in [31] was determined as 6.65.
Take `CC(C)C(Nc1ccc(C(F)(F)F)cc1Cl)C(=O)OC(C#N)c1cccc(Oc2ccccc2)c1` (racemic): the logP in data set [32] is 5.5.
In data set [33], `CCCCCCCCCCCCCCCCCC(=O)OC[C@@H]1O[C@H](n2ccc(N)nc2=O)CS1` had a lipophilicity (logP) of 1.82.
